Legend:
Type in all cases: in vivo
[1] = tested on: lambsquarters (Chenopodium album, CHEAL); experiment: Pre-emerge test, greenhouse herbicide activity screening; conditions: pre-emerge, rated 14 days after application, 0 = no damage, 100 = complete death
Outline: (§1)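 Sandy loam pots; pre-emerge: sown 1 d pre-spray, surface-watered after, then bottom-watered. Post-emerge: sown 8–21 d before, 2–3 leaf stage, + 0.25% v/v NIS, bottom-watered. Acetone, 187 l/ha track spray, 15–1000 g ai/ha. 0–100 injury score, day 14.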

[2] = tested on: ivyleaf morningglory (Ipomoea hederacea, IPOHE); experiment: as above; conditions: pre-emerge, rated 14 days after application, 0 = no damage, 100 = complete death
Outline: as §1

[3] = tested on: green foxtail (Setaria viridis, SETVI); experiment: as above; conditions: pre-emerge, rated 14 days after application, 0 = no damage, 100 = complete death
Outline: as §1

[4] = tested on: sicklepod (Cassia obtusifolia, CASOB); experiment: as above; conditions: pre-emerge, rated 14 days after application, 0 = no damage, 100 = complete death
Outline: as §1

[5] = tested on: barnyardgrass (Echinochloa crus-galli, ECHCG); experiment: as above; conditions: pre-emerge, rated 14 days after application, 0 = no damage, 100 = complete death
Outline: as §1

[6] = tested on: large crabgrass (Digitaria sanguinalis, DIGSA); experiment: as above; conditions: pre-emerge, rated 14 days after application, 0 = no damage, 100 = complete death
Outline: as §1

[7] = tested on: velvetleaf (Abutilon theophrasti, ABUTH); experiment: as above; conditions: pre-emerge, rated 14 days after application, 0 = no damage, 100 = complete death
Outline: as §1

[8] = tested on: johnsongrass (Sorghum halepense, SORHA); experiment: as above; conditions: pre-emerge, rated 14 days after application, 0 = no damage, 100 = complete death
Outline: as §1

[9] = tested on: upland rice (Oryza sp., var. Tebonnet, RICE); experiment: Post-emerge test, crop safety; conditions: 14 days after application; for Post-emerge Herbicidal Activity RICE (crop damage): phytotoxicity rating 0-100 (0 no damage, 100 complete death); for phytotoxicity rating RICE: post-emerge, rating scale 0-100
Outline: as §1

[10] = tested on: field corn (Zea mays L., var. Dekalb 535, CORN); experiment: Post-emerge test, crop safety; conditions: 14 days after application; for Post-emerge Herbicidal Activity CORN (crop damage): phytotoxicity rating 0-100 (0 no damage, 100 complete death); for phytotoxicity rating CORN: post-emerge, rating scale 0-100
Outline: as §1

[11] = tested on: redroot pigweed (Amaranthus retroflexus, AMARE); experiment: Pre-emerge test, greenhouse herbicide activity screening; conditions: pre-emerge, rated 14 days after application, 0 = no damage, 100 = complete death
Outline: as §1

[12] = tested on: redroot pigweed (Amaranthus retroflexus, AMARE); experiment: Post-emerge test, greenhouse herbicide activity screening; conditions: 14 days after application; for Post-emerge Herbicidal Activity AMARE: phytotoxicity rating 0-100 (0 no damage, 100 complete death); for phytotoxicity rating AMARE: post-emerge, rating scale 0-100
Outline: (§2)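 Herbicidal damage is scored 0 (none) to 100 (complete plant death) two weeks after a simulated field spray. Rates span 15–1000 g ai/ha, delivered in acetone at 187 l/ha. For post-emergence treatments, plants have 2–3 leaves and the spray carries 0.25% v/v non-ionic surfactant.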

[13] = tested on: lambsquarters (Chenopodium album, CHEAL); experiment: as above; conditions: 14 days after application; for Post-emerge Herbicidal Activity CHEAL: phytotoxicity rating 0-100 (0 no damage, 100 complete death); for phytotoxicity rating CHEAL: post-emerge, rating scale 0-100
Outline: as §2

[14] = tested on: ivyleaf morningglory (Ipomoea hederacea, IPOHE); experiment: as above; conditions: 14 days after application; for Post-emerge Herbicidal Activity IPOHE: phytotoxicity rating 0-100 (0 no damage, 100 complete death); for phytotoxicity rating IPOHE: post-emerge, rating scale 0-100
Outline: as §2

[15] = tested on: green foxtail (Setaria viridis, SETVI); experiment: as above; conditions: 14 days after application; for Post-emerge Herbicidal Activity SETVI: phytotoxicity rating 0-100 (0 no damage, 100 complete death); for phytotoxicity rating SETVI: post-emerge, rating scale 0-100
Outline: as §2

[16] = tested on: sicklepod (Cassia obtusifolia, CASOB); experiment: as above; conditions: 14 days after application; for Post-emerge Herbicidal Activity CASOB: phytotoxicity rating 0-100 (0 no damage, 100 complete death); for phytotoxicity rating CASOB: post-emerge, rating scale 0-100
Outline: as §2

[17] = tested on: barnyardgrass (Echinochloa crus-galli, ECHCG); experiment: as above; conditions: 14 days after application; for Post-emerge Herbicidal Activity ECHCG: phytotoxicity rating 0-100 (0 no damage, 100 complete death); for phytotoxicity rating ECHCG: post-emerge, rating scale 0-100
Outline: as §2

[18] = tested on: large crabgrass (Digitaria sanguinalis, DIGSA); experiment: as above; conditions: 14 days after application; for Post-emerge Herbicidal Activity DIGSA: phytotoxicity rating 0-100 (0 no damage, 100 complete death); for phytotoxicity rating DIGSA: post-emerge, rating scale 0-100
Outline: as §2

[19] = tested on: common ragweed (Ambrosia artemisizfolia L., AMBEL); experiment: as above; conditions: post-emerge, 14 days after application, rating scale 0-100
Outline: as §2

[20] = tested on: velvetleaf (Abutilon theophrasti, ABUTH); experiment: as above; conditions: 14 days after application; for Post-emerge Herbicidal Activity ABUTH: phytotoxicity rating 0-100 (0 no damage, 100 complete death); for phytotoxicity rating ABUTH: post-emerge, rating scale 0-100
Outline: as §2

[21] = tested on: johnsongrass (Sorghum halepense, SORHA); experiment: as above; conditions: 14 days after application; for Post-emerge Herbicidal Activity SORHA: phytotoxicity rating 0-100 (0 no damage, 100 complete death); for phytotoxicity rating SORHA: post-emerge, rating scale 0-100
Outline: as §2

[22] = tested on: upland rice (Oryza sp., var. Tebonnet, RICE); experiment: Pre-emerge test, crop safety; conditions: pre-emerge, rated 14 days after application, 0 = no damage, 100 = complete death
Outline: (§3)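 Compounds in acetone were track-sprayed at 187 l/ha, 15–1000 g ai/ha, onto sandy loam pots. Pre-emerge seeds were sown one day before spraying, with surface watering afterwards. Post-emerge plants were at the 2–3 leaf stage and sprayed with 0.25% v/v non-ionic surfactant. Injury was rated 0–100 at 14 days.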

[23] = tested on: field corn (Zea mays L., var. Dekalb 535, CORN); experiment: Pre-emerge test, crop safety; conditions: pre-emerge, rated 14 days after application, 0 = no damage, 100 = complete death
Outline: as §3

COc1c(Cl)cc(F)c(-n2c(=O)cc(C(F)(F)F)n(C)c2=O)c1NC(=O)CC#N [2-14]
80: phytotoxicity rating CHEAL ([13]; 63 g ai/ha) | Post-emerge Herbicidal Activity IPOHE ([14]; 250 g ai/ha)
95: Post-emerge Herbicidal Activity ABUTH ([20]; 250 g ai/ha)
50: Pre-emerge Herbicidal Activity CHEAL (phytotoxicity rating, scale 0-100) ([1]; 63 g ai/ha) | phytotoxicity rating CORN ([10]; 63 g ai/ha) | Pre-emerge Herbicidal Activity AMARE (phytotoxicity rating, scale 0-100) ([11]; 63 g ai/ha) | phytotoxicity rating SETVI ([15]; 250 g ai/ha)
60: Pre-emerge Herbicidal Activity SETVI (phytotoxicity rating, scale 0-100) ([3]; 63 g ai/ha) | Pre-emerge Herbicidal Activity CASOB (phytotoxicity rating, scale 0-100) ([4]; 250 g ai/ha) | phytotoxicity rating RICE ([9]; 63 g ai/ha) | phytotoxicity rating CORN ([10]; 250 g ai/ha) | phytotoxicity rating AMBEL ([19]; 63 g ai/ha)
20: Pre-emerge Herbicidal Activity DIGSA (phytotoxicity rating, scale 0-100) ([6]; 250 g ai/ha) | phytotoxicity rating SETVI ([15]; 63 g ai/ha) | phytotoxicity rating DIGSA ([18]; 250 g ai/ha) | phytotoxicity rating SORHA ([21]; 63 g ai/ha) | phytotoxicity rating SORHA ([21]; 250 g ai/ha)
30: Pre-emerge Herbicidal Activity SORHA (phytotoxicity rating, scale 0-100) ([8]; 250 g ai/ha) | Post-emerge Herbicidal Activity RICE (crop damage) ([9]; 250 g ai/ha) | Post-emerge Herbicidal Activity CHEAL ([13]; 63 g ai/ha) | phytotoxicity rating ECHCG ([17]; 63 g ai/ha) | Pre-emerge crop damage RICE (phytotoxicity rating, scale 0-100) ([22]; 250 g ai/ha)
0: Pre-emerge Herbicidal Activity IPOHE (phytotoxicity rating, scale 0-100) ([2]; 63 g ai/ha) | Pre-emerge Herbicidal Activity CASOB (phytotoxicity rating, scale 0-100) ([4]; 63 g ai/ha) | Pre-emerge Herbicidal Activity ECHCG (phytotoxicity rating, scale 0-100) ([5]; 63 g ai/ha) | Pre-emerge Herbicidal Activity ECHCG (phytotoxicity rating, scale 0-100) ([5]; 250 g ai/ha) | Pre-emerge Herbicidal Activity DIGSA (phytotoxicity rating, scale 0-100) ([6]; 63 g ai/ha) | Pre-emerge Herbicidal Activity SORHA (phytotoxicity rating, scale 0-100) ([8]; 63 g ai/ha) | Post-emerge Herbicidal Activity CORN (crop damage) ([10]; 63 g ai/ha) | Post-emerge Herbicidal Activity SETVI ([15]; 63 g ai/ha) | Post-emerge Herbicidal Activity SETVI ([15]; 250 g ai/ha) | Post-emerge Herbicidal Activity ECHCG ([17]; 63 g ai/ha) | Post-emerge Herbicidal Activity ECHCG ([17]; 250 g ai/ha) | Post-emerge Herbicidal Activity DIGSA ([18]; 63 g ai/ha) | Post-emerge Herbicidal Activity DIGSA ([18]; 250 g ai/ha) | Post-emerge Herbicidal Activity SORHA ([21]; 63 g ai/ha) | Post-emerge Herbicidal Activity SORHA ([21]; 250 g ai/ha) | Pre-emerge crop damage RICE (phytotoxicity rating, scale 0-100) ([22]; 63 g ai/ha) | Pre-emerge crop damage CORN (phytotoxicity rating, scale 0-100) ([23]; 63 g ai/ha) | Pre-emerge crop damage CORN (phytotoxicity rating, scale 0-100) ([23]; 250 g ai/ha)
85: phytotoxicity rating AMARE ([12]; 63 g ai/ha)
10: Post-emerge Herbicidal Activity RICE (crop damage) ([9]; 63 g ai/ha) | Post-emerge Herbicidal Activity CORN (crop damage) ([10]; 250 g ai/ha) | Post-emerge Herbicidal Activity CASOB ([16]; 63 g ai/ha) | Post-emerge Herbicidal Activity CASOB ([16]; 250 g ai/ha) | phytotoxicity rating DIGSA ([18]; 63 g ai/ha)
100: Pre-emerge Herbicidal Activity CHEAL (phytotoxicity rating, scale 0-100) ([1]; 250 g ai/ha) | Pre-emerge Herbicidal Activity IPOHE (phytotoxicity rating, scale 0-100) ([2]; 250 g ai/ha) | Pre-emerge Herbicidal Activity SETVI (phytotoxicity rating, scale 0-100) ([3]; 250 g ai/ha) | Pre-emerge Herbicidal Activity ABUTH (phytotoxicity rating, scale 0-100) ([7]; 250 g ai/ha) | Pre-emerge Herbicidal Activity AMARE (phytotoxicity rating, scale 0-100) ([11]; 250 g ai/ha) | phytotoxicity rating AMARE ([12]; 250 g ai/ha) | phytotoxicity rating CHEAL ([13]; 250 g ai/ha) | phytotoxicity rating ABUTH ([20]; 63 g ai/ha) | phytotoxicity rating ABUTH ([20]; 250 g ai/ha)
40: Post-emerge Herbicidal Activity AMARE ([12]; 63 g ai/ha) | Post-emerge Herbicidal Activity CHEAL ([13]; 250 g ai/ha) | Post-emerge Herbicidal Activity IPOHE ([14]; 63 g ai/ha) | phytotoxicity rating CASOB ([16]; 63 g ai/ha) | phytotoxicity rating ECHCG ([17]; 250 g ai/ha)
70: Post-emerge Herbicidal Activity AMARE ([12]; 250 g ai/ha) | phytotoxicity rating IPOHE ([14]; 63 g ai/ha) | phytotoxicity rating CASOB ([16]; 250 g ai/ha)
90: Pre-emerge Herbicidal Activity ABUTH (phytotoxicity rating, scale 0-100) ([7]; 63 g ai/ha) | phytotoxicity rating RICE ([9]; 250 g ai/ha) | phytotoxicity rating IPOHE ([14]; 250 g ai/ha) | phytotoxicity rating AMBEL ([19]; 250 g ai/ha) | Post-emerge Herbicidal Activity ABUTH ([20]; 63 g ai/ha)

From US6355799B1, “Substituted benzene compounds, process for their preparation, and herbicidal and defoliant compositions containing them” (ISK Americas Incorporated, priority 1997, dated 2002)
